In patent publication US20080194546A1, “Pyrido-, Pyrazo- and Pyrimido-Pyrimidine Derivatives as mTOR Inhibitors” (KuDOS Pharmaceuticals Limited, priority 2005, published 2008):
pIC50: −log10 of the molar value.

Target: T1, mTOR (Homo sapiens, UniProt P42345)
T1 construct: mTOR protein was isolated from HeLa cell cytoplasmic extract by immunoprecipitation; endogenous in cells; host or cells: HeLa cell cytoplasmic extract (immunoprecipitate)
Assay: Biological Assay: mTOR enzyme activity, mTOR immunoprecipitated from HeLa cell cytoplasmic extract, recombinant PHAS-1 as substrate
Type: biochemical
Conditions: Biological Assay, upper bounds; read-out: IC50 values against mTOR
Source text: For mTOR enzyme activity assays, mTOR protein was isolated from HeLa cell cytoplasmic extract by immunoprecipitation, and activity determined essentially as described previously using recombinant PHAS-1 as a substrate (ref. 21).

SMILES	pIC50
COc1ccc(-c2ccc3c(N4CCOCC4)nc(N4C[C@@H](C)O[C@@H](C)C4)nc3n2)cc1CN[C@H](CO)CCSC [Example 8bd]	> 6.00
COC[C@H](Cc1ccccc1)NCc1cc(-c2ccc3c(N4CCOCC4)nc(N4C[C@@H](C)O[C@@H](C)C4)nc3n2)ccc1OC [Example 8be]	> 7.00
CCCCCOc1ccc(NCc2cc(-c3ccc4c(N5CCOCC5)nc(N5C[C@@H](C)O[C@@H](C)C5)nc4n3)ccc2OC)cc1 [Example 8bf]	> 6.00
COc1ccc(-c2ccc3c(N4CCOCC4)nc(N4C[C@@H](C)O[C@@H](C)C4)nc3n2)cc1CNCc1ccc2c(c1)OCO2 [Example 8bg]	> 7.00
COc1ccc(-c2ccc3c(N4CCOCC4)nc(N4C[C@@H](C)O[C@@H](C)C4)nc3n2)cc1CNCCc1cnc[nH]1 [Example 8c]	> 7.00
COc1ccc(-c2ccc3c(N4CCOCC4)nc(N4C[C@@H](C)O[C@@H](C)C4)nc3n2)cc1CNCCO [Example 8d]	> 7.00
COc1ccc(CCNCc2cc(-c3ccc4c(N5CCOCC5)nc(N5C[C@@H](C)O[C@@H](C)C5)nc4n3)ccc2OC)cc1 [Example 8e]	> 7.00
CNCc1cc(-c2ccc3c(N4CCOCC4)nc(N4C[C@@H](C)O[C@@H](C)C4)nc3n2)ccc1OC [Example 8f]	> 7.00
COc1ccc(-c2ccc3c(N4CCOCC4)nc(N4C[C@@H](C)O[C@@H](C)C4)nc3n2)cc1CNCC1CC1 [Example 8g]	> 7.00
CCN(CC)CCCNCc1cc(-c2ccc3c(N4CCOCC4)nc(N4C[C@@H](C)O[C@@H](C)C4)nc3n2)ccc1OC [Example 8h]	> 7.00
COc1ccc(-c2ccc3c(N4CCOCC4)nc(N4C[C@@H](C)O[C@@H](C)C4)nc3n2)cc1CNC1CCOCC1 [Example 8i]	> 7.00
COc1ccc(-c2ccc3c(N4CCOCC4)nc(N4C[C@@H](C)O[C@@H](C)C4)nc3n2)cc1CNC1CCCC1 [Example 8k]	> 7.00
CCCCNCc1cc(-c2ccc3c(N4CCOCC4)nc(N4C[C@@H](C)O[C@@H](C)C4)nc3n2)ccc1OC [Example 8l]	> 7.00
COc1ccc(-c2ccc3c(N4CCOCC4)nc(N4C[C@@H](C)O[C@@H](C)C4)nc3n2)cc1CNCCC(C)C [Example 8m]	> 7.00
COc1ccc(-c2ccc3c(N4CCOCC4)nc(N4C[C@@H](C)O[C@@H](C)C4)nc3n2)cc1CNC1CCCCCCC1 [Example 8n]	> 7.00
COc1ccc(-c2ccc3c(N4CCOCC4)nc(N4C[C@@H](C)O[C@@H](C)C4)nc3n2)cc1CNC1CCCCC1 [Example 8o]	> 7.00
COc1ccc(-c2ccc3c(N4CCOCC4)nc(N4C[C@@H](C)O[C@@H](C)C4)nc3n2)cc1CNC1CCC(C)CC1 (stereo partly shown) [Example 8p]	> 6.00
COc1ccc(-c2ccc3c(N4CCOCC4)nc(N4C[C@@H](C)O[C@@H](C)C4)nc3n2)cc1CNCCC(C)(C)C [Example 8q]	> 6.00
COc1ccc(-c2ccc3c(N4CCOCC4)nc(N4C[C@@H](C)O[C@@H](C)C4)nc3n2)cc1CNC(C)C [Example 8r]	> 6.00
CCOCCCNCc1cc(-c2ccc3c(N4CCOCC4)nc(N4C[C@@H](C)O[C@@H](C)C4)nc3n2)ccc1OC [Example 8s]	> 6.00
COc1ccc(-c2ccc3c(N4CCOCC4)nc(N4C[C@@H](C)O[C@@H](C)C4)nc3n2)cc1CNC(C)CC(C)C (stereo partly shown) [Example 8t]	> 6.00
COc1ccc(-c2ccc3c(N4CCOCC4)nc(N4C[C@@H](C)O[C@@H](C)C4)nc3n2)cc1CNCC(C)C [Example 8u]	> 6.00
COCCNCc1cc(-c2ccc3c(N4CCOCC4)nc(N4C[C@@H](C)O[C@@H](C)C4)nc3n2)ccc1OC [Example 8v]	> 6.00

Test system: T47D cells
Assay: Cell Proliferation Assay (GI50), sulforhodamine B (SRB) assay
Type: cell-based
Conditions: Homo sapiens, 120 hours, SRB
Method: Cell growth was assessed using the sulforhodamine B (SRB) assay (A). T47D (ECACC, 85102201) cells were routinely passaged in RPMI (Invitrogen, 42401018) plus 10% foetal calf serum (FCS), 1% L-glutamine (Gibco BRL, 25030) to a confluence not greater than 80%. To undertake the assay, T47D cells were seeded at 2.5×10^3 cells/well in […] RPMI plus 10% foetal calf serum, 1% L-glutamine in 96 well plates (Costar, 3904) and incubated at 37° C. (+5% CO2) in a humidified incubator. Once the cells had fully adhered (typically following 4-5 hours incubation) the plate was removed from the incubator and 10 μL of the diluent added to the control wells (A1-12 and B1-12). Compound was prepared in a six point semi-log dilution at 10× the final concentration required e.g. for a 6 point range of 30 μM to 100 nM in semi-log steps dilution started at 300 μM in stock plate. Dosing was completed by addition of 10 μL of compound at highest concentration to C1-12 through to the lowest concentration in H1-12. The plates were then incubated for 120 hours prior to SRB analysis.
Upon completion of incubation, media was removed and the cells fixed with […] of ice cold 10% (w/v) trichloroacetic acid. The plates were incubated at 4° C. for 20 minutes and then washed four times with water. Each well of cells was then stained with 100 μl of 0.4% (w/v) SRB (Sulforhodamine B, Sigma, Poole, Dorset, UK, Catalogue number S-9012) in 1% acetic acid for 20 minutes before washing four times with 1% acetic acid. Plates were then dried for 2 hours at room temperature. The dye from the stained cells was solubilized by the addition of 100 μl of 10 mM Tris Base into each well. Plates were gently shaken and left at room temperature for 30 minutes before measuring the optical density at 564 nm on a Microquant microtiter plate reader. The concentration of inhibitor eliciting a 50% reduction in growth (GI50) was determined by analysis of staining intensity of the treated cells as a percentage of the vehicle control wells using Excelfit software.
(A) Skehan, P., Storung, R., Scudiero, R., Monks, A., McMahon, J., Vistica, D., Warren, J. T., Bokesch, H., Kenny, S. and Boyd, M. R. (1990) New […] cytotoxicity assay for anticancer-drug screening. J. Natl. Cancer Inst. 82, 1107-1112.

SMILES	GI50
COc1ccc(-c2ccc3c(N4CCOCC4)nc(N4C[C@@H](C)O[C@@H](C)C4)nc3n2)cc1CNCCc1cnc[nH]1 [Example 8c]	< 1000 nM
COc1ccc(CCNCc2cc(-c3ccc4c(N5CCOCC5)nc(N5C[C@@H](C)O[C@@H](C)C5)nc4n3)ccc2OC)cc1 [Example 8e]	< 1000 nM
CCN(CC)CCCNCc1cc(-c2ccc3c(N4CCOCC4)nc(N4C[C@@H](C)O[C@@H](C)C4)nc3n2)ccc1OC [Example 8h]	< 1000 nM
COc1ccc(-c2ccc3c(N4CCOCC4)nc(N4C[C@@H](C)O[C@@H](C)C4)nc3n2)cc1CNCCC(C)C [Example 8m]	< 1000 nM
COc1ccc(-c2ccc3c(N4CCOCC4)nc(N4C[C@@H](C)O[C@@H](C)C4)nc3n2)cc1CNC1CCCCCCC1 [Example 8n]	< 1000 nM
COc1ccc(-c2ccc3c(N4CCOCC4)nc(N4C[C@@H](C)O[C@@H](C)C4)nc3n2)cc1CNC1CCCCC1 [Example 8o]	< 1000 nM
COc1ccc(-c2ccc3c(N4CCOCC4)nc(N4C[C@@H](C)O[C@@H](C)C4)nc3n2)cc1CNC1CCC(C)CC1 (stereo partly shown) [Example 8p]	< 1000 nM
COc1ccc(-c2ccc3c(N4CCOCC4)nc(N4C[C@@H](C)O[C@@H](C)C4)nc3n2)cc1CNCCC(C)(C)C [Example 8q]	< 1000 nM
CCOCCCNCc1cc(-c2ccc3c(N4CCOCC4)nc(N4C[C@@H](C)O[C@@H](C)C4)nc3n2)ccc1OC [Example 8s]	< 1000 nM
COCCNCc1cc(-c2ccc3c(N4CCOCC4)nc(N4C[C@@H](C)O[C@@H](C)C4)nc3n2)ccc1OC [Example 8v]	< 1000 nM

Same assay, conditions: Homo sapiens, 120 hours, SRB, upper bounds

SMILES	GI50
COc1ccc(-c2ccc3c(N4CCOCC4)nc(N4C[C@@H](C)O[C@@H](C)C4)nc3n2)cc1CN[C@H](CO)CCSC [Example 8bd]	< 300 nM
COC[C@H](Cc1ccccc1)NCc1cc(-c2ccc3c(N4CCOCC4)nc(N4C[C@@H](C)O[C@@H](C)C4)nc3n2)ccc1OC [Example 8be]	< 300 nM
CCCCCOc1ccc(NCc2cc(-c3ccc4c(N5CCOCC5)nc(N5C[C@@H](C)O[C@@H](C)C5)nc4n3)ccc2OC)cc1 [Example 8bf]	< 300 nM
COc1ccc(-c2ccc3c(N4CCOCC4)nc(N4C[C@@H](C)O[C@@H](C)C4)nc3n2)cc1CNCc1ccc2c(c1)OCO2 [Example 8bg]	< 300 nM
COc1ccc(-c2ccc3c(N4CCOCC4)nc(N4C[C@@H](C)O[C@@H](C)C4)nc3n2)cc1CNCCO [Example 8d]	< 300 nM
CNCc1cc(-c2ccc3c(N4CCOCC4)nc(N4C[C@@H](C)O[C@@H](C)C4)nc3n2)ccc1OC [Example 8f]	< 300 nM
COc1ccc(-c2ccc3c(N4CCOCC4)nc(N4C[C@@H](C)O[C@@H](C)C4)nc3n2)cc1CNCC1CC1 [Example 8g]	< 300 nM
COc1ccc(-c2ccc3c(N4CCOCC4)nc(N4C[C@@H](C)O[C@@H](C)C4)nc3n2)cc1CNC1CCOCC1 [Example 8i]	< 300 nM
COc1ccc(-c2ccc3c(N4CCOCC4)nc(N4C[C@@H](C)O[C@@H](C)C4)nc3n2)cc1CNC1CCCC1 [Example 8k]	< 300 nM
CCCCNCc1cc(-c2ccc3c(N4CCOCC4)nc(N4C[C@@H](C)O[C@@H](C)C4)nc3n2)ccc1OC [Example 8l]	< 300 nM
COc1ccc(-c2ccc3c(N4CCOCC4)nc(N4C[C@@H](C)O[C@@H](C)C4)nc3n2)cc1CNC(C)C [Example 8r]	< 300 nM
COc1ccc(-c2ccc3c(N4CCOCC4)nc(N4C[C@@H](C)O[C@@H](C)C4)nc3n2)cc1CNC(C)CC(C)C (stereo partly shown) [Example 8t]	< 300 nM
COc1ccc(-c2ccc3c(N4CCOCC4)nc(N4C[C@@H](C)O[C@@H](C)C4)nc3n2)cc1CNCC(C)C [Example 8u]	< 300 nM
